Assay results from patent EP0565593B1, “REDUCING PESTICIDAL INTERACTIONS IN CROPS” (priority 1990, dated 1992).
Values joined by “and” are separate entries in the source; they are usually repeats but may differ in a detail not shown here. Equal values may be shown once. Read-outs that look alike come from different tables or passages of the source.

Tests used:
cotton (COTT) = assay: Multi-crop greenhouse test, COUNTER 15G and safener PPI, herbicide POE (Examples 62-64; Tables 61-63); type: in vivo; design: dose or concentration left out as unconfirmed; conditions: Gossypium hirsutum, Table 62, Biocide No. 1 8.96 Kg/Ha, antidote 4.48 Kg/Ha PPI where in label
Experimental: (§1) Tests according to this invention in various crops indicate widespread application of the invention. In Examples 62-66 below are described tests with a variety of herbicides contacted with COUNTER® 15G in the presence and absence of MON-7400 (Antidote No. 12); MON-13900 (No. 1); MON-4660 (No. 16) and flurazole (No. 16). Those tests were conducted according to Procedures IV or V described above and illustrated further in other foregoing examples. Plants used in all tests were, for crops (as abbreviated in parentheses); cotton (COTT); soybean (SOBE); CORN, grain sorghum (GRSO); wheat (WHEA) and RICE, and the weeds giant foxtail (GIFT) and velvetleaf (VELE). The data in the tables below represent averages of two replications.
(§2) In this test the crops and weeds were planted 1.3 cm deep in 13.7 cm X 27.7 cm pans containing Dupo silt loam soil. The test safeners were applied in acetone solution and COUNTER 15G as dry granules to soil cover layers and incorporated by shaking in a bag. Treated cover layers were placed on seeded pans which were transferred to greenhouse benches and subirrigated. Herbicide was applied POE six (6) days after PPI initiation and observations of plant injury made ten (10) days later; results are shown in Table 61. The herbicide used in this example was BEACON (No. 8).
(§3) The test procedure described in Example 62 was repeated using ACCENT® (Herbicide No. 7) as the herbicide; the biocide and safeners were the same.

wheat (WHEA) = assay: Multi-crop greenhouse test, herbicide POE (Examples 62-64; Tables 61-63); type: in vivo; design: dose or concentration left out as unconfirmed; conditions: Triticum aestivum, Table 62, Biocide No. 1 8.96 Kg/Ha, antidote 4.48 Kg/Ha PPI where in label
Experimental: as §1, §2, §3

soybean (SOBE) = assay: as above; type: in vivo; design: dose or concentration left out as unconfirmed; conditions: Glycine max, Table 62, Biocide No. 1 8.96 Kg/Ha, antidote 4.48 Kg/Ha PPI where in label
Experimental: as §1, §2, §3

RICE = assay: as above; type: in vivo; design: dose or concentration left out as unconfirmed; conditions: Oryza sativa, Table 62, Biocide No. 1 8.96 Kg/Ha, antidote 4.48 Kg/Ha PPI where in label
Experimental: as §1, §2, §3

grain sorghum (GRSO) = assay: as above; type: in vivo; design: dose or concentration left out as unconfirmed; conditions: Biocide No. 1 8.96 Kg/Ha, antidote 4.48 Kg/Ha PPI where in label
Experimental: as §1, §2, §3

Giant foxtail (GIFT) = assay: as above; type: in vivo; design: dose or concentration left out as unconfirmed; conditions: Setaria faberi, Table 62, Biocide No. 1 8.96 Kg/Ha, antidote 4.48 Kg/Ha PPI where in label
Experimental: as §1, §2, §3

Velvetleaf (VELE) [1] = assay: as above; type: in vivo; design: dose or concentration left out as unconfirmed; conditions: Abutilon theophrasti, Table 62, Biocide No. 1 8.96 Kg/Ha, antidote 4.48 Kg/Ha PPI where in label
Experimental: as §1, §2, §3

Corn [2] = assay: as above; type: in vivo; design: inhibition: dose or concentration left out as unconfirmed; conditions: Zea mays, Table 62, Biocide No. 1 8.96 Kg/Ha, antidote 4.48 Kg/Ha PPI where in label
Experimental: as §1, §2, §3

Corn [3] = test system: Corn
Shattercane (SHCA) = type: in vivo
Velvetleaf (VELE) [4] = type: in vivo, Abutilon theophrasti
Corn [5] = assay: Field trials, PPI, PRE and POE herbicide applications with terbufos (Example 7); type: in vivo; conditions: mean of five locations, soil-applied insecticide prior to planting
Description: This example summarizes the results of one series of field trials from a plurality of locations and soil types wherein test chemicals were applied in various modes including pre-plant incorporated (PPI), post emergence (POE) and preemergence (PRE) with and without a safener (antidote). Test Chemicals were Herbicide Nos 1, 2, 3 and 7-9; Insecticide No. 1 and Antidote No. 1.
In these trials Insecticide No. 1 (terbufos) was T-banded or furrow applied at labeled rates prior to planting corn. PPI herbicide treatments were applied prior to insecticide applications; PRE treatments were applied after the insecticide application either prior to or after seeding the corn. POE herbicide applications were made at 2 corn-growth stages, i.e., early post (EP) at the 2-3 leaf stage and late post (LP) at the 4-7 leaf stage. Plots were small plot with 3 replications in a randomized complete block design. In the PRE and PPI herbicide treatments, Antidote No. 1 was applied as a tankmix in both treatments. In the POE herbicide treatments, that antidote was applied as a tank mix with the herbicide at the EP and LP stages.

[6] = Herb. No. 7 (ACCENT) 0.0044 Kg/Ha POE
[7] = Herb. No. 7 (ACCENT) 0.035 Kg/Ha POE
[8] = Herb. No. 7 (ACCENT) 0.28 Kg/Ha POE
[9] = Herbicide No. 7 0.28 Kg/Ha POE alone, 13 days after planting
[10] = Herbicide No. 7 0.28 POE + Biocide No. 1 8.96 Kg/Ha PPI, 13 days after planting
[11] = Herbicide No. 7 alone, POE 5 DAP, observed 13 DAP
[12] = Table 14: no antidote, Herbicide No. 7 0.84 Kg/Ha POE and/or Biocide No. 2 8.96 Kg/Ha PPI, per label, 13 days after planting
[13] = Table 50, Herbicide No. 7 0.56 Kg/Ha POE, where applied Biocide No. 8 8.96 kg/Ha and antidote 4.48 Kg/Ha PPI, observed 9 days after POE
[14] = no antidote, […], 13 days after planting

**Q.** Which inhibition (cotton (COTT); [6]) does the source give for COc1cc(OC)nc(NC(=O)NS(=O)(=O)c2ncccc2C(=O)N(C)C)n1 [Herb. No. 7] here?
**A.** The inhibition was 25%.

**Q.** What about the inhibition (cotton (COTT); [7]) of the same molecule?
**A.** The inhibition was 40%.

**Q.** And the inhibition (cotton (COTT); [8])?
**A.** The inhibition was 50%.

**Q.** What about the inhibition (wheat (WHEA); [6]) of the same molecule?
**A.** Its inhibition is 35%.

**Q.** What about the inhibition (wheat (WHEA); [7]) of the same molecule?
**A.** Its inhibition is 45%.

**Q.** And the inhibition (wheat (WHEA); [8])?
**A.** Its inhibition is 60%.

**Q.** What about the inhibition (soybean (SOBE); [6]) of the same molecule?
**A.** The inhibition was 10%.

**Q.** And the inhibition (soybean (SOBE); [7])?
**A.** The inhibition was 20%.

**Q.** What about the inhibition (soybean (SOBE); [8]) of the same molecule?
**A.** The inhibition was 40%.

**Q.** And the inhibition (RICE; [6])?
**A.** The inhibition was 20%.

**Q.** And the inhibition (RICE; [7])?
**A.** Its inhibition is 40%.

**Q.** What about the inhibition (RICE; [8]) of the same molecule?
**A.** The inhibition was 50%.

**Q.** And the inhibition (grain sorghum (GRSO); Table 62, Herb. No. 7 (ACCENT) 0.0044 Kg/Ha POE)?
**A.** The inhibition was 60%.

**Q.** What about the inhibition (grain sorghum (GRSO); Table 62, Herb. No. 7 (ACCENT) 0.035 Kg/Ha POE) of the same molecule?
**A.** Its inhibition is 65%.

**Q.** And the inhibition (grain sorghum (GRSO); Table 62, Herb. No. 7 (ACCENT) 0.28 Kg/Ha POE)?
**A.** Its inhibition is 75%.

**Q.** What about the inhibition (Giant foxtail (GIFT); [6]) of the same molecule?
**A.** Its inhibition is 65%.

**Q.** And the inhibition (Giant foxtail (GIFT); [7])?
**A.** Its inhibition is 70%.

**Q.** What about the inhibition (Giant foxtail (GIFT); [8]) of the same molecule?
**A.** Its inhibition is 75%.

**Q.** And the inhibition (Velvetleaf (VELE) [1]; [6])?
**A.** The inhibition was 40%.

**Q.** What about the inhibition (Velvetleaf (VELE) [1]; [7]) of the same molecule?
**A.** Its inhibition is 60%.

**Q.** What about the inhibition (Velvetleaf (VELE) [1]; [8]) of the same molecule?
**A.** Its inhibition is 65%.

**Q.** What about the inhibition (Corn [2]; [6]) of the same molecule?
**A.** The inhibition was 0%.

**Q.** What about the inhibition (Corn [2]; [7]) of the same molecule?
**A.** The inhibition was 0%.

**Q.** What about the inhibition (Corn [2]; [8]) of the same molecule?
**A.** The inhibition was 0%.

**Q.** Which results are given for COc1cc(OC)nc(NC(=O)NS(=O)(=O)c2ncccc2C(=O)N(C)C)n1 [Herbicide No. 7, reference compound]?
**A.** safety to corn (Corn [3]; ACCENT alone, no insecticide, 0.28 to 0.84 kg/ha): completely safe; % Inhibition Corn (Corn [3]; [9]): 0%; % Inhibition Corn (Corn [3]; [10]): 60%; % Inhibition Corn (Corn [3]; [11]): 0%; % Inhibition Corn (Corn [3]; [12]): 0%; % Inhibition Corn (Corn [3]; [13]): 10%; % Inhibition Corn (Corn [3]; [14]): 0%; % Inhibition SHCA (Shattercane (SHCA); [9]): 70%; % Inhibition SHCA (Shattercane (SHCA); [10]): 75%; % Inhibition SHCA (Shattercane (SHCA); [11]): 75%; % Inhibition SHCA (Shattercane (SHCA); [12]): 75%; % Inhibition SHCA (Shattercane (SHCA); [13]): 75%; % Inhibition SHCA (Shattercane (SHCA); in vivo): 75%; % Inhibition SHCA (Shattercane (SHCA); [14]): 75%; % Inhibition VELE (Velvetleaf (VELE) [4]; [9]): 60%; % Inhibition VELE (Velvetleaf (VELE) [4]; [10]): 65%; % Inhibition VELE (Velvetleaf (VELE) [4]; [11]): 70%; % Inhibition VELE (Velvetleaf (VELE) [4]; [12]): 65%; % Inhibition VELE (Velvetleaf (VELE) [4]; [13]): 80%; % Inhibition VELE (Velvetleaf (VELE) [4]; in vivo): 60% and 75%; % Inhibition VELE (Velvetleaf (VELE) [4]; [14]): 60%; interaction with Insecticide No. 1 after POE herbicide (Corn [5]): Significant increased growth reduction
